The target of test [1] is T1, O6-methylguanine-methyltransferase (MGMT) (Homo sapiens, UniProt P16455).
T1 construct: recombinant MGMT, about 26 kDa
T1 sequence (P16455 1-207): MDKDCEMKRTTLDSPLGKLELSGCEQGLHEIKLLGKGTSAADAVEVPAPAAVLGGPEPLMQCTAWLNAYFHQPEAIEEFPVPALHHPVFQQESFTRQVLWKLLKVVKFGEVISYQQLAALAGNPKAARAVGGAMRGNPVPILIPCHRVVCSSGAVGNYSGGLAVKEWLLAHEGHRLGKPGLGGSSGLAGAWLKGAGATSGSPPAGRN
Kind of test: fluorescence turn-on kinetics with recombinant MGMT, SDS-PAGE in-gel fluorescence, Job's plot; also HeLa S3 lysate labeling. The test is classed as binding. The note with it: read-out: fluorescence turn-on kinetics with recombinant MGMT, SDS-PAGE in-gel fluorescenc.

Test [2] concerns the target T2, human carbonic anhydrase II (hCAII) (Homo sapiens, UniProt P00918).
T2 construct: gene CA2
The experiment in a line: fluorescence turn-on titration with hCAII in PBS; displaced by ethoxzolamide. The test is classed as binding.

With `N#C/C(=C\c1cc2c3c(c1)CCCN3CCC2)C(=O)NCc1ccc(COc2nc(N)nc3[nH]cnc23)cc1` [BG-CCVJ], in test [1], the kinact/KI is roughly 715 M⁻¹ s⁻¹.

Usually Kd stands for the free concentration of one partner at which half of the binding sites on the other are occupied at equilibrium, for simple one-to-one binding. Read a high Kd as lower affinity. With `N#CC(=Cc1cc2c3c(c1)CCCN3CCC2)C(=O)NCc1ccc(S(N)(=O)=O)cc1` [SA-CCVJ], the Kd in test [2] was roughly 70 nM.

The record behind these values is PMC5515057, “Protein sensing in living cells by molecular rotor-based fluorescence-switchable chemical probes” (Chemical Science, 2015).
